From US20240131032A1, “AN ACTIVITY-GUIDED MAP OF ELECTROPHILE-CYSTEINE INTERACTIONS IN PRIMARY HUMAN IMMUNE CELLS” (The Scripps Research Institute, priority 2019, published 2024)

Key:
[1] = test system: CRISPR/Cas9-edited primary human T cells; assay: T cell activation after CRISPR/Cas9 target disruption plus compound (FACS CD25/CD69); format: cell-based
Description: DNA templates consisting of a T7 RNA Polymerase promoter, the ˜20 nt target-specific sequence, and the chimeric sgRNA scaffold were generated for each desired target by overlapping PCR using Q5 High Fidelity Master Mix (New England Biolabs) under the following conditions: 98° C. for 2 min; 50° C. for 10 min; 72° C. for 10 min. Guide RNA templates were used to transcribe guide RNAs using the HiScribe T7 High Yield RNA Synthesis kit (New England Biolabs) according to the manufacturer's instructions. Following in vitro transcription, guides were purified using Monarch RNA Cleanup Kit (New England Biolabs) following manufacturer's instructions.
The Cas9 RNPs were assembled before transfection using the ArciTect™ Cas9-eGFP Nuclease (StemCell) with the T7 transcribed RNAs at a molar ratio of 1:3 in Buffer T. For each target of interest, the genome was tiled with 3 unique guide RNAs. Before the transfection, primary T cells were preactivated on αCD3/αCD28-precoated plates in complete RPMI medium supplemented with 100 U/mL IL2 for 48 h. The T cells were then washed with PBS and resuspended in Buffer T (10×10^6 cells/mL) and the Cas9 RNP transfections were performed using the Neon Transfection system (ThermoFisher). Following the Cas9 RNP transfection, T cells were cultured in RPMI supplemented with 50 U/mL IL2 for 7 days. […]

NFATc2 = assay: NFAT pathway activation in stimulated T cells (western blot of NFATc2); format: cell-based, human; settings: 4 h
Description: FIG. 22A and FIG. 22B show the effects of active compounds on NFAT pathway activation. […] FIG. 22C and FIG. 22D show the effects of active compounds on MAPK pathway. […] All treatments were done for 24 h.

NuRD complex = assay: Expression-based proteomics (TMT-exp) of compound-treated T cells, NuRD complex; format: cell-based, human; settings: BPK-25 10 μM, 24 h; for decrease in GATAD2B, MBD2, MBD3, and MTA2 (NuRD complex proteins): BPK-21 20 μM, EV-3 10 μM, DMF 50 μM
Description: FIG. 7B is a scatter plot representation of protein abundance changes caused by BPK-25 (10 μM, 24 h) in two independent replicate experiments, with decreases in NuRD complex components highlighted in red. FIG. 7C is a heatmap of top proteins with decreased abundance in BPK-25-treated T cells showing that the subset of these proteins in the NuRD complex (asterisks) were largely unaltered by other active compounds and blocked in their degradation by co-treatment with the proteasome inhibitor MG132. […] FIG. 7E is a bar graph […] showing time-dependent reductions in NuRD complex members in human T cells treated with BPK-25 (10 μM). Left, representative western blots. Right, quantification of changes in protein. […] FIG. 7G is a heat map showing the changes in cysteine reactivity for NuRD complex members in human T cells treated with BPK-25 and other active compounds.
Freshly isolated T cells (1.6×10^7 cells, 2×10^6 cells/mL in RPMI media) were treated with compound or DMSO for 24 h, pelleted (600 g, 5 min), and washed with PBS (1×10 mL). The cells were then transferred to an Eppendorf tube in additional PBS (1 mL), pelleted (600 g, 5 min), flash frozen, and kept at −80° C. until further analysis. On the first day of the whole proteome TMT protocol, the cells were thawed on ice and lysed in lysis buffer (150 μL, 1 tablet of Roche complete, mini, EDTA-free Protease Inhibitor Cocktail dissolved in 10 mL of PBS) using a probe sonicator (2×8 pulses). Protein concentration was adjusted to 2.0 mg/mL and the samples (100 μL) were transferred to new Eppendorf tubes (1.5 mL) containing urea (48 mg/tube, final urea concentration: 8 M). DTT (5 μL, 200 mM fresh stock in H2O, final DTT concentration: 10 mM) was then added to the tubes and the samples were incubated at 65° C. for 15 min. Following this incubation, iodoacetamide (5 μL, 400 mM fresh stock in H2O, final IA concentration: 20 mM) was added and the samples were incubated in the dark at 37° C. with shaking for 30 min. Ice-cold MeOH (600 μL), CHCl3 (200 μL), and H2O (500 μL) were then added, the mixture was vortexed and centrifuged (10,000 g, 10 min, 4° C.) to afford a protein disc at the interface of CHCl3 and aqueous layers. The top layer was aspirated without perturbing the disk, additional MeOH (600 μL) was added and the proteins were pelleted (10,000 g, 10 min, 4° C.) and used in the next step or stored at −80° C. overnight.
The resulting protein pellets were resuspended in EPPS buffer (160 μL, 200 mM, pH 8) using a probe sonicator (2×6 pulses). […]
The sample became clear after the overnight digestion. At this point, peptide concentration was determined using microBCA assay (Thermo Scientific) according to manufacturer's instructions. […]

C=CC(=O)N(Cc1cccc(Cl)c1Cl)c1ccc(Oc2ccccc2)c(C(F)(F)F)c1 [BPK-21]
T cell activation in sgERCC3 cells ([1]; CRISPR/Cas9 disruption of ERCC3): only a modest further reduction in activation | reductions in NFATc2 dephosphorylation (NFAT activation) (NFATc2): did not appear to impact

C=CC(=O)N(Cc1cccc(Cl)n1)c1ccc(C(=O)Nc2ccccc2)nc1 [BPK-25]
NFATc2 expression (NFATc2): reduced NFATc2 expression | reduced abundance of additional NuRD complex members (NuRD complex): 25-50% | decrease in GATAD2B, MBD2, MBD3, and MTA2 (NuRD complex proteins) (NuRD complex): > 50%

COC(=O)/C=C/C(=O)OC [DMF, reference compound]
decrease in GATAD2B, MBD2, MBD3, and MTA2 (NuRD complex proteins) (NuRD complex): not leading to NuRD complex degradation

O=C(CCl)N1CCN(S(=O)(=O)c2ccc(-c3ccncc3)cc2)CC1 [EV-3]
T cell activation in BIRC2/BIRC3-null cells ([1]; CRISPR/Cas-9 disruption of BIRC2 and BIRC3): further decreased T cell activation
